ChEMBL document CHEMBL1201862, “PubChem BioAssay data set” (2004)
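Following 48 hours of exposure in 96-well plates, responses at five concentrations were used to interpolate endpoints linearly. GI50: concentration for 50% inhibition of growth.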 Calls of active or inactive are those of the source. No stated cut-off is given here; in the data, active = GI50 up to about 1.1 µM and inactive = higher.

Key:
Assay in all cases: NCI-60 cell line screen, 48 h
OVCAR-8 = test system: OVCAR-8
HCC 2998 = test system: HCC 2998
ACHN = test system: ACHN
OVCAR-4 = test system: OVCAR-4
COLO 205 = test system: COLO 205
SN12C = test system: SN12C
K562 = test system: K562
LOX IMVI = test system: LOX IMVI
SW-620 = test system: SW-620
M14 = test system: M14
U-251 = test system: U-251
NCI-H460 = test system: NCI-H460
HCT-15 = test system: HCT-15
HL-60 = test system: HL-60
RPMI-8226 = test system: RPMI-8226
SNB-19 = test system: SNB-19
CAKI-1 = test system: CAKI-1
MCF7 = test system: MCF7

| SMILES | GI50 (OVCAR-8) | GI50 (HCC 2998) | GI50 (ACHN) | GI50 (OVCAR-4) | GI50 (COLO 205) | GI50 (SN12C) | GI50 (K562) | GI50 (LOX IMVI) | GI50 (SW-620) | GI50 (M14) | GI50 (U-251) | GI50 (NCI-H460) | GI50 (HCT-15) [µM] | GI50 (HL-60) | GI50 (RPMI-8226) | GI50 (SNB-19) | GI50 (CAKI-1) | GI50 (MCF7) |
| --- | --- | --- | --- | --- | --- | --- | --- | --- | --- | --- | --- | --- | --- | --- | --- | --- | --- | --- |
| Oc1cc(-c2ccc(Oc3ccccc3)cc2)nc2cc3c(cc12)OCO3 | > 100 µM (inactive) | > 100 µM (inactive) | > 100 µM (inactive) | > 100 µM (inactive) | > 100 µM (inactive) | > 100 µM (inactive) | > 100 µM (inactive) | > 100 µM (inactive) | > 100 µM (inactive) | > 100 µM (inactive) | > 100 µM (inactive) | > 100 µM (inactive) | > 100 | > 100 µM (inactive) | > 100 µM (inactive) | > 100 µM (inactive) | – | – |
| NS(=O)(=O)c1ccc(NC(=O)C2C(=O)C(=O)N(c3ccc(S(N)(=O)=O)cc3)C2=O)cc1 (centres undefined) | > 100 µM (inactive) | > 100 µM (inactive) | > 100 µM (inactive) | > 100 µM (inactive) | > 100 µM (inactive) | > 100 µM (inactive) | > 100 µM (inactive) | > 100 µM (inactive) | > 100 µM (inactive) | > 100 µM (inactive) | > 100 µM (inactive) | – | > 100 | > 10 µM (inactive) | > 100 µM (inactive) | > 100 µM (inactive) | > 100 µM (inactive) | – |
| Cc1ccc(C)c(NC(=O)C(=O)CC(=O)C2CCOC2=O)c1 (centres undefined) | > 100 µM (inactive) | – | > 100 µM (inactive) | > 100 µM (inactive) | > 100 µM (inactive) | > 100 µM (inactive) | > 100 µM (inactive) | > 100 µM (inactive) | > 100 µM (inactive) | > 100 µM (inactive) | > 100 µM (inactive) | > 100 µM (inactive) | > 100 | > 100 µM (inactive) | > 100 µM (inactive) | > 100 µM (inactive) | > 100 µM (inactive) | – |
| CCOC(=O)/C(=C/c1ccco1)P(=O)(OCC)OCC | > 100 µM (inactive) | > 100 µM (inactive) | > 100 µM (inactive) | > 100 µM (inactive) | > 100 µM (inactive) | > 100 µM (inactive) | > 100 µM (inactive) | > 100 µM (inactive) | > 100 µM (inactive) | > 100 µM (inactive) | > 100 µM (inactive) | > 100 µM (inactive) | > 100 | > 100 µM (inactive) | > 100 µM (inactive) | – | > 100 µM (inactive) | – |
| COc1cc(C2C(Cl)C(=O)N2NC(=O)c2ccc(NC(C)=O)cc2)cc(Br)c1O (centres undefined) | > 100 µM (inactive) | > 100 µM (inactive) | > 100 µM (inactive) | – | > 100 µM (inactive) | – | > 100 µM (inactive) | – | > 100 µM (inactive) | – | > 100 µM (inactive) | > 100 µM (inactive) | – | > 100 µM (inactive) | > 100 µM (inactive) | > 100 µM (inactive) | – | – |
| CC(=O)c1ccc(NC(=O)/C(=N\NC(N)=O)C(C#N)CC(C)(C)C=O)cc1 (centres undefined) | > 100 µM (inactive) | > 100 µM (inactive) | > 100 µM (inactive) | > 100 µM (inactive) | > 100 µM (inactive) | > 100 µM (inactive) | > 100 µM (inactive) | > 100 µM (inactive) | > 100 µM (inactive) | > 100 µM (inactive) | > 100 µM (inactive) | > 100 µM (inactive) | > 100 | > 100 µM (inactive) | > 100 µM (inactive) | > 100 µM (inactive) | > 100 µM (inactive) | – |
| Cc1nc2c(n1-c1ccccc1)C(=O)c1ccccc1C2=O | 42.4 µM (inactive) | 39.6 µM (inactive) | 56.9 µM (inactive) | 28.2 µM (inactive) | – | 38.2 µM (inactive) | 32.2 µM (inactive) | – | 35.5 µM (inactive) | 42 µM (inactive) | 34 µM (inactive) | 39.3 µM (inactive) | 20.6 | 14.7 µM (inactive) | – | 50.2 µM (inactive) | 70.8 µM (inactive) | – |
| CC(=O)c1ccc(OCC(O)CO)cc1 (centres undefined) | > 100 µM (inactive) | > 100 µM (inactive) | > 100 µM (inactive) | > 100 µM (inactive) | 35.6 µM (inactive) | > 100 µM (inactive) | 61.9 µM (inactive) | – | 14.9 µM (inactive) | > 100 µM (inactive) | 49.8 µM (inactive) | > 100 µM (inactive) | > 100 | > 100 µM (inactive) | 62.7 µM (inactive) | > 100 µM (inactive) | > 100 µM (inactive) | – |
| COC(=O)C(C/C=C(\C)c1ccccc1)C(C)=O (centres undefined) | > 100 µM (inactive) | > 100 µM (inactive) | – | 56 µM (inactive) | > 81.8 µM (inactive) | > 100 µM (inactive) | 44.9 µM (inactive) | 68.2 µM (inactive) | > 100 µM (inactive) | – | 57.5 µM (inactive) | 85.3 µM (inactive) | 66.1 | 21.4 µM (inactive) | 27.2 µM (inactive) | > 100 µM (inactive) | – | > 70.3 µM (inactive) |
| CCCCCCCCOCC(O)COC(=O)CCCCCCC (centres undefined) | > 100 µM (inactive) | 30.7 µM (inactive) | > 100 µM (inactive) | 34.4 µM (inactive) | 79.3 µM (inactive) | > 100 µM (inactive) | 31.2 µM (inactive) | > 100 µM (inactive) | > 100 µM (inactive) | > 100 µM (inactive) | > 100 µM (inactive) | > 100 µM (inactive) | > 100 | 32.4 µM (inactive) | 27.1 µM (inactive) | > 100 µM (inactive) | > 100 µM (inactive) | – |
| O=C1Sc2ccccc2C(=O)N2CCSC12 (centres undefined) | > 100 µM (inactive) | > 100 µM (inactive) | – | – | > 100 µM (inactive) | > 100 µM (inactive) | > 100 µM (inactive) | > 100 µM (inactive) | > 100 µM (inactive) | > 100 µM (inactive) | > 100 µM (inactive) | > 100 µM (inactive) | > 100 | 82.6 µM (inactive) | > 100 µM (inactive) | > 100 µM (inactive) | – | – |
| CC1=C(C(=O)NCc2ccccc2)C(c2ccc(N(C)C)cc2)C(C(=O)NCc2ccccc2)=C(C)N1 | > 100 µM (inactive) | > 100 µM (inactive) | > 100 µM (inactive) | > 100 µM (inactive) | > 100 µM (inactive) | > 100 µM (inactive) | > 100 µM (inactive) | – | > 100 µM (inactive) | > 100 µM (inactive) | > 100 µM (inactive) | > 100 µM (inactive) | – | > 100 µM (inactive) | > 100 µM (inactive) | > 100 µM (inactive) | > 100 µM (inactive) | – |
| COC(=O)CC(=O)OSc1ccccc1 | – | 28.1 µM (inactive) | 18.2 µM (inactive) | 28.6 µM (inactive) | 19.5 µM (inactive) | 12.9 µM (inactive) | 35.2 µM (inactive) | 12.6 µM (inactive) | 18.1 µM (inactive) | 17.6 µM (inactive) | 3.48 µM (inactive) | 38.5 µM (inactive) | – | – | 15.7 µM (inactive) | 41.7 µM (inactive) | – | – |
| NCc1ccccc1C1CSCSC1 | > 100 µM (inactive) | – | > 100 µM (inactive) | > 100 µM (inactive) | – | > 100 µM (inactive) | > 100 µM (inactive) | > 100 µM (inactive) | > 100 µM (inactive) | – | > 100 µM (inactive) | > 100 µM (inactive) | > 100 | > 100 µM (inactive) | – | – | – | – |
| O=C(c1ccco1)c1ccccc1C(=O)c1ccco1 | > 100 µM (inactive) | > 100 µM (inactive) | > 100 µM (inactive) | > 100 µM (inactive) | > 100 µM (inactive) | > 100 µM (inactive) | > 100 µM (inactive) | > 100 µM (inactive) | > 100 µM (inactive) | > 100 µM (inactive) | > 100 µM (inactive) | > 100 µM (inactive) | > 100 | > 100 µM (inactive) | – | > 100 µM (inactive) | > 100 µM (inactive) | – |
| O=C(CC1(O)C(=O)Nc2ccccc21)c1ccc2ccccc2c1 (centres undefined) | > 100 µM (inactive) | > 100 µM (inactive) | > 100 µM (inactive) | > 100 µM (inactive) | > 100 µM (inactive) | > 100 µM (inactive) | > 100 µM (inactive) | > 100 µM (inactive) | > 100 µM (inactive) | > 100 µM (inactive) | – | > 100 µM (inactive) | > 100 | > 100 µM (inactive) | > 100 µM (inactive) | > 100 µM (inactive) | > 100 µM (inactive) | – |
| CC(=O)Nc1ccc(/C=C(\NC(=O)c2ccccc2)C(=O)NNS(=O)(=O)c2ccc(C)cc2)cc1 | > 100 µM (inactive) | > 100 µM (inactive) | > 100 µM (inactive) | > 100 µM (inactive) | 25.8 µM (inactive) | > 100 µM (inactive) | > 100 µM (inactive) | 16.4 µM (inactive) | – | > 100 µM (inactive) | > 100 µM (inactive) | 50.2 µM (inactive) | 18.4 | > 100 µM (inactive) | 22.5 µM (inactive) | > 100 µM (inactive) | > 100 µM (inactive) | – |
| Cc1nc(O)nc2c1C(NCCCN(C)C)c1cc(Cl)ccc1N2 (centres undefined) | 15.3 µM (inactive) | 16.3 µM (inactive) | 16.6 µM (inactive) | – | 13.2 µM (inactive) | 14.8 µM (inactive) | 8.61 µM (inactive) | 11.9 µM (inactive) | 15.2 µM (inactive) | 9.59 µM (inactive) | 15.9 µM (inactive) | 14.7 µM (inactive) | – | 14 µM (inactive) | 17.3 µM (inactive) | 16.4 µM (inactive) | – | – |
| O=C1c2ccccc2C2(O)NC(=S)N(c3ccccc3)C12O (centres undefined) | > 100 µM (inactive) | > 100 µM (inactive) | – | > 100 µM (inactive) | > 100 µM (inactive) | – | > 100 µM (inactive) | > 100 µM (inactive) | > 100 µM (inactive) | > 100 µM (inactive) | > 100 µM (inactive) | > 100 µM (inactive) | > 100 | > 100 µM (inactive) | > 100 µM (inactive) | > 100 µM (inactive) | > 100 µM (inactive) | – |
